Experimental data: US20260131003A1, “Method and kit for treating skin infections” (Koite Health Oy, priority 2020, published 2026)

Tested on: Staphylococcus aureus biofilm
Experiment: Monospecies S. aureus biofilm model, light exposure after ICG incubation, CFU counting
Format: cell-based
Conditions: for reduction in bacterial counts: three-day maturated biofilm
Procedure: Monospecies S. Aureus biofilm model experiments were performed to study the effect of single, or recurring application of dual-light aPDT or its parts during the biofilm formation process. Flat-bottom Nunclon Delta well plates (Thermo Fisher Scientific Inc, US), were used, and the biofilm experiments were divided into different setups based on maturation age and the therapy given.
Applications of both single- and dual-light therapies were scheduled to mimic the daily use of antibacterial light therapy. The total amount of […] as kept unchanged in different treatment protocols, and the concentration of the ICG photosensitizer (if given) were identical. In the first setting, S. aureus biofilm was incubated for either one day or three days, and a single dose of light with ICG was applied at the end of the growth period. In the second setting, the biofilm was incubated for either three days or six days, and a daily dose of light ICG with was applied during incubation. In each setting, the last treatment was followed by plating onto brain heart infusion (BHI)-agar dishes for colony-forming unit (CFU) counting.
Staphylococcus Aureus bacteria were grown for 18 h in an incubator (NuAire DH autoflow 5500, NuAire inc, US), at +36 degrees C, 5% CO2 in BHI broth (Bio-Rad 3564014, Bio-Rad Laboratories, Inc, US). The resulting bacterial suspension was diluted with a 0.9% NaCl solution until an optical density (OD) of 0.46 was reached. The optical density was measured by a spectrophotometer (Varian Cary 100 Bio UV-VIS, Agilent Technologies, Inc, US), and then with a Den 1 McFarland Densitometer (Biosan, Riga, Latvia).
Biofilms were grown in flat-bottom 96-well plates (Thermo Fisher Scientific Inc, US) by placing 100 μl of 0.46 OD S. aureus suspension in each well, with 100 μl of BHI-broth growth medium. The well plates were then incubated in a growth chamber (36° C., 5% CO^2). The BHI-broth medium was changed daily to supply fresh growth medium and to wash away the debris. The change of the medium in each well was performed by removing 100 μl of the medium and replacing it with a similar amount of fresh BHI broth.
Before the light exposure took place, the growth medium was meticulously removed by pipetting and subsequently replaced with an equal amount of indocyanine green solution (Verdye, Diagnostic Green, GmBH), tittered to a concentration of 250 μg/ml. The indocyanine green was left to incubate at room temperature and in the dark for 10 minutes. After this incubation period, the biofilm was washed with a 0.9% NaCl solution. Then, the 0.9% solution of NaCl was added to each well to reach a total volume of 200 μl.
Light exposure was performed using specific, custom-made LED light sources (Lumichip Oy, Espoo, Finland). The exposure time was calculated from the determined light amount and known irradiances, which had been previously measured with a light energy meter (Thorlabs PM 100D with S121C sensor head, Thorlabs Inc, US) and a spectroradiometer (BTS256, Gigahertz-Optik GmbH, Germany), respectively. After the exposure, the BHI broth was changed and the plates were placed in the incubator, or, if the light exposure was final, the biofilm was scraped for CFU counting, as described below. Excitation lights were applied with two single-wave LED light sources with peak intensities at 810 nm or at 405 nm, and with a dual-wave LED light chip simultaneously producing two separate peak intensities at 405 nm and at 810 nm.
Antibacterial photodynamic therapy light exposure was administered at an 810-nm peak wavelength LED array on top of the well plate. The resulting light irradiance was 100 mW/cm^2, and the provided light energy was 100 J/cm^2. Antibacterial blue light was administered at a 405-nm peak wavelength LED array, with a resulting irradiance of 80 mW/cm^2, and resulting light energy of 100 J/cm^2. […]

In the case of `CC1(C)C(/C=C/C=C/C=C/C=C2\N(CCCCS(=O)(=O)O)c3ccc4ccccc4c3C2(C)C)=[N+](CCCCS(=O)(=O)[O-])c2ccc3ccccc3c21` [ICG, indocyanine green], the “antibacterial effectivity by dual-light relative energy ratio” value (1/4 NIR (810 nm) to 3/4 aBL (405 nm) compared with 1/1 and 3/4 NIR to 1/4 aBL, largest difference in 6-day daily treated biofilm) is reported as “most effective”, the “antibacterial efficacy of simultaneous ICG/810-nm aPDT and 405-nm aBL versus single-light aPDT or aBL” value (S. aureus biofilm, overall conclusion) is reported as “significantly improved antibacterial efficacy” and the “antibacterial efficiency of dual-light aPDT versus single light (CFU count)” value (one-day biofilm, single dose, ICG 250 μg/ml, 405 nm + 810 nm simultaneously, total 100 J/cm^2) is reported as “significantly more efficient than single-light aBL or aPDT”. For the same compound, the “antibacterial effect (CFU count)” value (one-day biofilm, single light dose, ICG 250 μg/ml, all modalities (single-light aPDT 810 nm, dual-light aPDT)) was “bactericidal”, the “reduction in bacterial counts” value (single exposure of aPDT (ICG 250 μg/ml, 810 nm, 100 J/cm^2)) was “four” and the “reduction in bacterial counts” value (single exposure of dual-light aPDT (ICG 250 μg/ml, 405 nm + 810 nm)) was “four”.
